# According to the supplement of paper PMC10307832:
# Key:
# Assay in all cases: relative viability (nuclei count vs DMSO), 5 days (fraction); higher = more cells survive
# Navitoclax = compound: CC1(C)CCC(c2ccc(Cl)cc2)=C(CN2CCN(c3ccc(C(=O)NS(=O)(=O)c4ccc(N[C@H](CCN5CCOCC5)CSc5ccccc5)c(S(=O)(=O)C(F)(F)F)c4)cc3)CC2)C1 [Navitoclax]
# Procedure, shortened: (§1)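 In 1536-well plates, lung cancer cell lines rested overnight at 37 °C before five library-drug doses (not always all listed), √10 apart, were pinned onto vehicle-anchored plates. Nuclei were counted with MetaXpress from 4× Hoechst images taken after 5 days without medium change. Viability compares treated-well with vehicle-well nuclei as a median over plates, and plates needed control CV below 25% plus at least one doubling to pass.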
# XAV939 = compound: Oc1nc(-c2ccc(C(F)(F)F)cc2)nc2c1CSCC2 [XAV939]
# Procedure, shortened: as §1
# [1] = compound: O=C(O)c1ccc(-c2c[nH]c3ncc(-c4ccccc4)cc23)cc1C1CCCC1
# Procedure, shortened: as §1
# C-75 = compound: CCCCCCCC[C@H]1[C@@H](C(=C)C(=O)O1)C(=O)O [C-75]
# Procedure, shortened: as §1
# AZD7762 = compound: NC(=O)Nc1cc(-c2cccc(F)c2)sc1C(=O)N[C@H]1CCCNC1 [AZD7762]
# Procedure, shortened: as §1
Cell Line,relative viability (Navitoclax; 0.005 µM),relative viability (Navitoclax; 0.01581 µM),relative viability (Navitoclax; 0.05 µM),relative viability (Navitoclax; 0.1581 µM),relative viability (Navitoclax; 0.5 µM),"relative viability (Navitoclax; 0.5 µM, anchor plate)",relative viability (XAV939; 0.08 µM),relative viability (XAV939; 0.253 µM),relative viability (XAV939; 0.8 µM),relative viability (XAV939; 2.53 µM),relative viability ([1]; 0.04 µM),relative viability ([1]; 0.1265 µM),relative viability ([1]; 0.4 µM),relative viability ([1]; 1.265 µM),relative viability (C-75; 0.08 µM),relative viability (C-75; 0.253 µM),relative viability (C-75; 0.8 µM),relative viability (C-75; 2.53 µM),relative viability (C-75; 8 µM),relative viability (AZD7762; 0.01 µM),relative viability (AZD7762; 0.03162 µM),relative viability (AZD7762; 0.1 µM),"relative viability (AZD7762; 0.2 µM, anchor plate)",relative viability (AZD7762; 0.3162 µM),relative viability (AZD7762; 1 µM)
NCI-H1666,1.02,1.02,0.853,1.02,1.01,0.994,1.03,0.98,0.977,0.929,0.958,1.01,0.949,0.68,1.05,1.21,0.946,0.721,0.96,1.09,1.04,1.1,0.895,1.01,0.98
NCI-H1703,0.907,1.05,0.933,0.994,0.939,1.18,1.05,0.98,0.929,0.812,0.949,1.04,1.11,1.02,0.993,0.929,0.83,0.869,0.817,0.767,0.35,0.276,0.132,0.174,0.194
NCI-H1734,1.03,1.08,,0.888,1.01,0.859,1.03,0.913,0.92,0.842,0.985,1.11,0.939,0.764,1.09,0.949,0.956,0.632,0.766,0.977,1.12,1.02,0.575,0.856,0.507
NCI-H1755,1.01,1.02,0.897,0.957,0.966,0.988,0.961,0.834,0.931,0.876,1.01,1.09,1.04,0.956,0.954,0.972,0.946,0.845,0.982,1.01,1.02,1.09,0.458,0.936,0.471
NCI-H1792,0.956,0.936,0.778,0.693,1.06,0.664,0.955,0.874,0.871,0.74,,1.09,0.856,0.921,0.904,0.956,0.845,0.76,0.863,0.912,1.02,1.02,0.71,1.08,1.01
NCI-H1793,0.977,1.09,,0.866,0.702,0.491,1.12,0.748,1.01,0.863,0.91,1.28,0.9,0.956,0.822,1.1,0.795,0.768,1.05,1.02,1.1,0.961,0.538,0.924,0.555
NCI-H1915,0.968,0.963,1.05,0.923,0.886,0.789,1.03,0.973,1.01,0.96,1.02,0.974,0.955,0.857,0.987,1.05,0.959,0.862,0.823,1.01,1.01,1.05,0.72,0.99,0.89
NCI-H1944,0.942,1.09,0.766,0.913,0.892,1.05,1.12,0.907,0.898,0.87,0.92,1.07,0.907,0.874,0.871,0.909,0.929,,0.9,1,1,1.1,0.566,0.967,0.605
NCI-H1975,0.927,1.06,1.03,0.824,0.99,1.12,0.87,0.705,0.78,0.742,0.952,1.09,0.965,0.975,0.999,0.827,0.85,0.884,0.931,0.957,0.927,0.938,0.761,0.791,0.575
NCI-H1993,0.925,1.23,0.913,0.947,0.949,1.04,0.841,0.693,0.782,0.827,0.979,1.02,0.946,0.877,1.09,1.07,0.888,0.855,0.903,0.96,0.984,0.957,0.828,1.11,0.819
NCI-H2009,0.964,1.14,1.02,1.04,1.04,1.16,1.12,0.996,0.924,0.899,1.01,1.01,0.963,0.762,0.999,0.991,0.911,0.81,0.905,1.07,0.994,1.1,,1,0.834
NCI-H2023,0.919,1.04,0.958,0.97,0.909,0.994,1.02,0.827,0.817,0.755,1.07,1.06,0.994,0.75,1,1.13,0.864,0.535,0.852,0.965,0.841,0.491,,0.262,0.132
NCI-H2085,1.01,1.14,0.93,1.01,1.05,1.12,1.05,0.893,0.902,0.891,0.932,1.04,0.956,0.933,1.04,0.974,0.988,0.866,0.975,1.03,0.992,1.08,0.973,1.05,0.864
